Patent US20190263796A1, “LIM KINASE INHIBITORS, PHARMACEUTICAL COMPOSITION AND METHOD OF USE IN LIMK-MEDIATED DISEASES” (CELLIPSE, priority 2016, published 2019)
Read-outs that look alike come from different tables or passages of the source.

Key:
[1] = tested on: Phospho-Ser3-Cofilin/Total Cofilin; assay: Western blot cofilin phosphorylation, MOLM-14; assay type: cell-based; conditions: MOLM-14 cells, 2 h
Method: (§1) MOLM-14 cell line was originally purchased from the American Type Culture Collection (ATCC). MOLM-14 cells are cultured in MEM alpha 10% (v/v) FBS supplemented with 100 U/mL^−1 penicillin, 0.1 mg·mL^−1 streptomycin (PAN Biotech P06-07100). Cells were maintained at 37° C. with 5% CO2.
In a 6 wells plate (Falcon 353046), 2·10^6 cells in 1.5 mL medium are treated for 2 h with compounds. Cells are then collected and cell lysis is performed at 4° C. using RIPA buffer supplemented with protease inhibitors cocktail (Sigma-Aldrich P8340) and phosphatase inhibitors cocktail (Sigma-Aldrich P5726). Following centrifugation 30 min 15000 g 4° C., supernatants are mixed with Laemmli buffer and denaturation is performed by heating 5 min 95° C. 10 μL of samples are subjected to electrophoresis on 15% SDS-PAGE. After electro-transfer (Mini Transblot, Bio-Rad), the PVDF membrane (Merck-Millipore Immobilon P IPVH00010) is blocked with Tris Buffered Saline, pH 7.4 (TBS) with 0.1% Tween 20 and 5% BSA for 1 h RT under agitation. The membrane was rinsed 3 times 10 min at room temperature under agitation with TBS, 0.1% Tween-20 (TBST) and then 1 h at room temperature with anti-phospho-Ser3-cofilin (Cell Signaling Technology #3313, 1/1000 dilution) antibody or anti-cofilin (Cell Signaling Technology #3312, 1/1000 dilution) diluted in TBS, 0.1% Tween 20 and 1% BSA. The membrane is then rinsed 3 times 10 min at room temperature under agitation in TBST and incubated for 1 h with anti-rabbit secondary antibody, horseradish peroxidase conjugated (Jackson Immunoresearch #711-036-152) under agitation at room temperature. After three washes 10 min at room temperature in TBST, the detection of total or phosphorylated cofilin was performed using chemiluminescence kit ECL™ Plus (GE Healthcare RPN2132). For each concentration of compound, ratio between phosphorylated cofilin and total cofilin is determined. This ratio is then expressed as percentage of control ratio (i.e., ratio from DMSO treated cells). IC50 Phospho-Ser3-Cofilin/Total Cofilin is then determined.

LIMK1(h) = LIMK1(h) (Homo sapiens, UniProt P53667); assay: LIMK1 kinase assay (Eurofins Panlabs, radiometric); assay type: biochemical; design: purchased Eurofins Panlabs Inc. (contract assay service)
Method: Compounds were tested in a LIMK1 assay performed by Eurofins Panlabs Inc. LIMK1 (h) is incubated with 8 mM MOPS pH 7.0, 0.2 mM EDTA, 0.6 mg/mL cofilin, 10 mM Magnesium acetate and [gamma-33P]-ATP. The reaction is initiated by the addition of the Mg/ATP mix. After incubation for 40 min at room temperature, the reaction is stopped by the addition of phosphoric acid to a concentration of 0.5%. […] IC50 LIMK1 is then determined.

B-Raf(h) = B-Raf(h) (Homo sapiens, UniProt P15056); assay: B-Raf kinase assay (Eurofins Panlabs, radiometric); assay type: biochemical; design: purchased Eurofins Panlabs Inc. (contract assay service)
Method: IC50 B-Raf is then determined.
Selectivity ratios are calculated by dividing the IC50 B-Raf (nM) by the IC50 LIMK1 (nM).

P-MEK/Total MEK [2] = assay: Western blot MEK1 phosphorylation, MV4-11; assay type: cell-based; conditions: for IC50: read-out: IC50 P-MEK/Total MEK; for Selectivity ratio: IC50 P-MEK/Total MEK divided by IC50 Phospho-Ser3-Cofilin/Total Cofilin
Method: (§2) MV4-11 cell line was originally purchased from the American Type Culture Collection (ATCC) or from the Leibniz-Institut Deutsche Sammlung von Mikroorganismen und Zellkulturen GmbH (DSMZ). MV4-11 cells are cultured in RPMI 1640 20% (v/v) FBS supplemented with 100 U/mL^−1 penicillin, 0.1 mg·mL^−1 streptomycin (PAN Biotech P06-07100) and 2 mM Glutamine (Sigma-Aldrich 59202C). Cells were maintained at 37° C. with 5% CO2.
(§3) In a 6 wells plate (Falcon 353046), 2·10^6 cells in 1.5 mL medium are treated for 2 h with compounds. Cells are then collected and cell lysis is performed at 4° C. using RIPA buffer supplemented with protease inhibitors cocktail (Sigma-Aldrich P8340) and phosphatase inhibitors cocktail (Sigma-Aldrich P5726). Following centrifugation 30 min 15000 g 4° C., supernatants are mixed with Laemmli buffer and denaturation is performed by heating 5 min 95° C. 10 μL of samples are subjected to electrophoresis on 15% SDS-PAGE. After electro-transfer (Mini Transblot, Bio-Rad), the PVDF membrane (Merck-Millipore Immobilon P IPVH00010) is blocked with Tris Buffered Saline, pH 7.4 (TBS) with 0.1% Tween 20 and 5% BSA for 1 h at room temperature under agitation. The membrane was rinsed 3 times 10 min at room temperature under agitation with TBS, 0.1% Tween-20 (TBST) and then 1 h at room temperature with anti-phospho-Ser218/222-MEK1 (Merck-Millipore 07-461, 1/1000 dilution) antibody or anti-MEK1 (Merck-Millipore 07-641, 1/1000 dilution) diluted in TBS, 0.1% Tween 20 and 1% BSA. The membrane is then rinsed 3 times 10 min RT under agitation in TBST and incubated for 1 h with anti-rabbit secondary antibody, horseradish peroxidase conjugated (Jackson Immunoresearch #711-036-152) under agitation at room temperature. After three washes 10 min at room temperature in TBST, the detection of total or phosphorylated cofilin was performed using chemiluminescence kit ECL™ Plus (GE Healthcare RPN2132). For each concentration of compound, ratio between phosphorylated cofilin and total cofilin is determined. This ratio is then expressed as percentage of control ratio (i.e., ratio from DMSO treated cells). IC50 P-MEK/Total MEK is then determined.
(§4) Selectivity ratios are calculated by dividing the IC50 P-MEK/Total MEK value (μM) by the IC50 Phospho-Ser3-Cofilin/Total Cofilin value (μM).

P-MEK/Total MEK [3] = assay: Western blot MEK1 phosphorylation, MOLM-14; assay type: cell-based; conditions: for IC50: 2 h; for Selectivity ratio: IC50 P-MEK/Total MEK divided by IC50 Phospho-Ser3-Cofilin/Total Cofilin
Method: as §1, §3, §4

MV4-11 cells = assay: Cell proliferation assay (PrestoBlue), MV4-11; assay type: cell-based; conditions: Homo sapiens, 48 h
Method: as §2, with “(ATCC).” for “(ATCC) or from the Leibniz-Institut Deutsche Sammlung von Mikroorganismen und Zellkulturen GmbH (DSMZ).”, “10%” for “20%”
The assay was performed in 96 wells microplate (Greiner Bioone 655090). MV4-11 cells are seeded at 5,000 cells per well. Compounds (or equivalent amounts of DMSO) are then added and cells are allowed to grow for 48 h. Proliferation is evaluated using PrestoBlue assay according to manufacturer recommendations. Results are expressed as GI50 (Growth Inhibition 50%: concentration at which proliferation is inhibited of 50%) in comparison to DMSO controls.

[4] = 120 μM ATP, Table 8, read-out: IC50 B-Raf
[5] = IC50 B-Raf (nM) divided by IC50 LIMK1 (nM), Table 8

Chain of B-Raf(h) (P15056 whole entry): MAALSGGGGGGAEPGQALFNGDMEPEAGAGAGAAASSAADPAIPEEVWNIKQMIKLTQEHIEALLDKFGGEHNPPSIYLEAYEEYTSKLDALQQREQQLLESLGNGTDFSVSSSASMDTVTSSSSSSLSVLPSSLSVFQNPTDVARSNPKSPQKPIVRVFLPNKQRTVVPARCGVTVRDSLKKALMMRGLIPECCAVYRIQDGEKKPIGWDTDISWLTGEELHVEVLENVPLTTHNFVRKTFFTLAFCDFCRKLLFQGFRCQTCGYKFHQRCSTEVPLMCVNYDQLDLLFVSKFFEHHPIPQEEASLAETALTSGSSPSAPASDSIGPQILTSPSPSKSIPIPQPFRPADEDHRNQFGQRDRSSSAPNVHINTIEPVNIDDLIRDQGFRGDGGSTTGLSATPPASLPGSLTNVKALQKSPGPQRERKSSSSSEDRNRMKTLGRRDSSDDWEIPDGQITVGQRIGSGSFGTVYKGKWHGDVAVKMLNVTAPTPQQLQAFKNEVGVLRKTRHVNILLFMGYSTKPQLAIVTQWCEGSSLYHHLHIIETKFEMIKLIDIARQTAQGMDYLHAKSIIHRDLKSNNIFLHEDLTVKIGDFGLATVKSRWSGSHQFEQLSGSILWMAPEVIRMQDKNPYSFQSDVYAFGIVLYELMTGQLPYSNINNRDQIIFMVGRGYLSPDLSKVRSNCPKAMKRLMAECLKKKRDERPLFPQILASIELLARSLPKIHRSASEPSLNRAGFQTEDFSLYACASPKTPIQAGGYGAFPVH
Chain of LIMK1(h) (P53667 whole entry): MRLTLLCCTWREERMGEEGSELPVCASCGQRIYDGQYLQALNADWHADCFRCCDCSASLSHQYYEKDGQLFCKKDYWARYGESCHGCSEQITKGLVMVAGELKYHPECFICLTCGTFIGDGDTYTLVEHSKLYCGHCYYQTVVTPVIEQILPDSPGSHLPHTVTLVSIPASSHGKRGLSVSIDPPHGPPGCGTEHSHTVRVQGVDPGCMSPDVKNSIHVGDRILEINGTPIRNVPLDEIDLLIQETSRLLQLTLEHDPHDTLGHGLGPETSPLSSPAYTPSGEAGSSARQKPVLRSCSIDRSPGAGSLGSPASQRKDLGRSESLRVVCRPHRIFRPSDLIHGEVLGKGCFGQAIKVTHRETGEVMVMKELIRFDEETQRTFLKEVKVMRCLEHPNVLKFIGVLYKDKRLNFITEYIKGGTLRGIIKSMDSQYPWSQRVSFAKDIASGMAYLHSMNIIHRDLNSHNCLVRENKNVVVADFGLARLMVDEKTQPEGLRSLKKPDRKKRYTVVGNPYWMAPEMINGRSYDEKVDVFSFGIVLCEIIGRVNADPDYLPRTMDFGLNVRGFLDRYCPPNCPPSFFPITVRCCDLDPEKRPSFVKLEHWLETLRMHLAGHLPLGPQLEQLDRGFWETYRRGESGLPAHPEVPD

| SMILES | IC50 (B-Raf(h); [4]) | Selectivity ratio (B-Raf(h); [5]) | Selectivity ratio (P-MEK/Total MEK [2]; MV4-11 cells) | Selectivity ratio (P-MEK/Total MEK [3]; MOLM-14 cells) | IC50 ([1]; Homo sapiens) | GI50 (MV4-11 cells) | IC50 (P-MEK/Total MEK [2]; Homo sapiens, MV4-11, 2 h) | also measured |
| --- | --- | --- | --- | --- | --- | --- | --- | --- |
| O=S(=O)(Nc1cccc(-c2nc(CCO)sc2-c2ccnc(Nc3ccccc3)n2)c1F)c1c(F)cccc1F [8 (Na)] | 10 to 100 nM | 9 | 6 | 30 |  |  |  | IC50 [1]: < 200 nM; IC50 (LIMK1(h); 15 μM ATP, Table 8, read-out: IC50 LIMK1): < 10 nM; IC50 (P-MEK/Total MEK [2]; MV4-11 cells, 2 h): > 1000 nM; IC50 (P-MEK/Total MEK [3]; MOLM-14 cells, read-out: IC50 P-MEK/Total MEK): > 1000 nM |
| O=S(=O)(Nc1cccc(-c2nc(CCO)sc2-c2ccnc(Nc3ccccc3)n2)c1F)c1c(F)cccc1F [Compound 8, 2,6-difluoro-N-(2-fluoro-3-(2-(2-hydroxyethyl)-5-(2-(phenylamino)pyrimidin-4-yl)thiazol-4-yl)phenyl)benzenesulfonamide] |  |  | 4 | 100 | < 200 nM | ≤ 1000 nM |  | IC50 (LIMK1(h); 15 μM ATP, Table 2, read-out: IC50 LIMK1): < 10 nM; IC50 (P-MEK/Total MEK [2]; Homo sapiens, MV4-11 cells, 2 h): > 1000 nM; IC50 (P-MEK/Total MEK [3]; Homo sapiens, MOLM-14 cells, read-out: IC50 P-MEK/Total MEK): > 1000 nM |
| CNC(=O)Cc1nc(-c2cccc(NS(=O)(=O)c3c(F)cccc3F)c2F)c(-c2ccnc(Nc3ccccc3)n2)s1 [Compound 9, 2-(4-(3-(2,6-difluorophenylsulfonamido)-2-fluorophenyl)-5-(2-(phenylamino)pyrimidin-4-yl)thiazol-2-yl)-N-methylacetamide] | 10 to 100 nM |  |  |  | < 200 nM | 1000 to 5000 nM | > 1000 nM | IC50 (P-MEK/Total MEK [3]; read-out: IC50 P-MEK/Total MEK, MOLM-14 cells): > 1000 nM |
| CC(C)(C)c1nc(-c2cccc(NS(=O)(=O)c3c(F)cccc3F)c2F)c(-c2ccnc(Nc3ccccc3)n2)s1 [Compound 1, N-(3-(2-(tert-butyl)-5-(2-(phenylamino)pyrimidin-4-yl)thiazol-4-yl)-2-fluorophenyl)-2,6-difluorobenzenesulfonamide] |  | 8 | 125 | 40 | < 200 nM | ≤ 1000 nM | > 1000 nM | IC50 (LIMK1(h)): 10 to 100 nM; IC50 (LIMK1(h); read-out: IC50 LIMK1, Table 5, value reported in part II.1): 10 to 100 nM; selectivity ratio for LIMK1 over B-Raf (B-Raf(h); IC50 B-Raf (nM) divided by IC50 LIMK1 (nM)): about 20; IC50 (B-Raf(h); IC50 B-Raf, 120 μM ATP, Table 8): 10 to 100 nM; IC50 (B-Raf(h); IC50 B-Raf, Table 5): 500 to 5000 nM; IC50 (P-MEK/Total MEK [3]; Homo sapiens, MOLM-14, 2 h, read-out: IC50 P-MEK/Total MEK, MOLM-14 cells): > 1000 nM |
